The subject of this test is RNase. In words: Smart-seq2 (SS2) cDNA library generation and sequencing from 100 pg mouse RNA with the agent replacing recombinant RNase inhibitor in lysis buffer. The class given is biochemical. The settings on record: for sustained RNA stability during cDNA library generation: SS2 protocol for bulk RNA; for quality of the sequencing data compared with standard Smart-seq2 utilizing recombinant RNAse inhibitor (TaKaRa): agent used in its optimal range; for optimal range of alternative inhibitor (cDNA size distribution and yield similar to standard Smart-seq2): concentration in 1× Smart-seq2 lysis buffer, 100 pg mouse RNA. As for the experimental part:
We started by systematically testing ranges of PVSA concentrations in the scRNAseq protocol Smart-seq2 (SS2) (5), which provides full-length read coverage across transcripts, enabling evaluation of polymerase processivity. We prepared lysis buffer containing 0-600 μg/mL of PVSA (resulting in 0-270 μg/mL in the following first-strand reaction) and 100 pg spiked mouse RNA, performed SS2 library amplification, and evaluated resulting cDNA by capillary electrophoresis (Methods).
To examine the information yield and quality of PVSA-generated RNA-seq libraries, we sequenced SS2 libraries generated in presence of PVSA or RI (TaKaRa) and downsampled the resulting reads to allow even comparison (Methods). We analyzed library quality metrics in terms of genomic and transcriptomic mappability, base substitution rates, insertion and deletions (indels), likelihood of mismatches within the read, and average indel length.
Bulk RNA was extracted from cultured mouse tail tip fibroblasts using TRIzol (Invitrogen). For all bulk RNAseq experiments 100 pg of RNA was used as input, if is not otherwise specified, and was added to 96-well plates containing either Smart-seq2 or Smart-seq3 standard lysis buffer or lysis buffer with varying concentrations of polyvinyl sulfonic acid (Merck, cat no. 278424). Smart-seq2 lysis buffer composition was 0.1% Triton X-100, 2.5 mM dNTP/each, […] oligo-dT (5′-[…]30VN-3′), and 4 U recombinant inhibitor (TaKaRa) or PVSA of the concentration specified for each condition; total buffer volume 4.5 ul. Smart-seq3 lysis buffer composition was 0.1% Triton X-100, 10% PEG 8000, 1 mM dNTP/each, and 1 uM Smart-seq3 oligo-dT (5′-biotin-[…] T30VN-3′), and 1 U recombinant inhibitor (TaKaRa) or PVSA of the concentration specified for each condition; total buffer volume 2 ul. For single-cell experiments, cultured HEK293FT, spleen, or liver cells in 0.5% BSA in PBS were sorted into 96 well plates containing lysis buffer using an SH800S (Sony). Single cell sorted plates were briefly centrifuged and kept at −80° C. until they were further processed. Plates containing lysis buffer and input material were then processed according to the Smart seq2 and Smart-seq3 protocols (Picelli, S. et al., 2014 and Hagemann-Jensen, M. et al., 2020), except without addition of recombinant inhibitor in the first-strand reaction mix in reactions where PVSA was used. Smart-seq2 cDNA library generation: Cell were lysed at 72° C. for 3 min in a Bioer Life ECO thermocycler and placed on ice prior to first-strand synthesis. The following reverse transcriptase reaction contained 1× Superscript II buffer, 5 mM DTT, 1M betaine, 10 mM MgCl2, 1 uM Smart-seq2 TSO (5′-[…]rGrG+G-3′), 10 U Superscript II, and 10 U recombinant inhibitor (TaKaRa) for samples containing biological inhibitor; total reaction volume 10 ul. RT thermocycles were 42° C. for 90 min, followed by 10 cycles of 42° C. for 2 min and 50° C. for 2 min. The following cDNA amplification reaction contained 1× KAPA HiFi HotStart Ready Mix and 80 nM ISPCR primers (5′-[…]-3′); total reaction volume 25 ul. Thermocycles for Smart-seq2 cDNA amplification were 98° C. for 3 min, followed by either 18 (bulk), 20 (HEK), 21 (liver) or 22 (spleen) cycles of 98° C. for 20 sec, 67° C. for 15 sec, and 72° C. for 6 min, followed by a final incubation at 72° C. for 5 min. Smart-seq3 cDNA library generation: Cell were lysed at 72° C. for 10 min and placed on ice prior to first-strand synthesis.

Several values for one entry are separate records, joined by “and”; a condition that tells them apart may be missing. Identical values can stand only once.

As for `C=CS(=O)(=O)O` [VSA, Vinylsulfonic acid], the “sustained RNA stability during cDNA library generation” value was “did”; the “quality of the sequencing data compared with standard Smart-seq2 utilizing recombinant RNAse inhibitor (TaKaRa)” value is listed as “on par”; the “optimal range of alternative inhibitor (cDNA size distribution and yield similar to standard Smart-seq2)” value (“optimal range of alternative inhibitor” for short) was in the range of 500 to 2000 µg/mL.

Take Fucoidan: the “quality of the sequencing data compared with standard Smart-seq2 utilizing recombinant RNAse inhibitor (TaKaRa)” value is “on par”; the “optimal range of alternative inhibitor” value was in the range of 5 to 20 µg/mL.

As for `C=CP(=O)(O)O` [VPA, vinylphosphonic acid, reference compound], the “sustained RNA stability during cDNA library generation” value is given as “did not sustain RNA stability during cDNA library generation”.

As to Heparin [reference compound], the “sustained RNA stability during cDNA library generation” value is given as “did”; the “quality of the sequencing data compared with standard Smart-seq2 utilizing recombinant RNAse inhibitor (TaKaRa)” value was “on par”; the “optimal range of alternative inhibitor” value lay within 2 to 10 µg/mL.

As for Sodium alginate, the “sustained RNA stability during cDNA library generation” value is listed as “did”; the “quality of the sequencing data compared with standard Smart-seq2 utilizing recombinant RNAse inhibitor (TaKaRa)” value was “on par”; the “optimal range of alternative inhibitor” value was 200 to 400 µg/mL and 100 to 400 µg/mL.

`O=S(=O)(O)CCN1CCOCC1` [MES, 2-(N-morpholino)ethanesulfonic acid]: the “sustained RNA stability during cDNA library generation” value was “did”; the “quality of the sequencing data compared with standard Smart-seq2 utilizing recombinant RNAse inhibitor (TaKaRa)” value is listed as “on par”; the “optimal range of alternative inhibitor” value was 4000 to 12000 µg/mL. In addition, the “optimal concentration of alternative inhibitor” value (Smart-seq2 lysis buffer, 100 pg mouse fibroblast RNA) fell in the range of 6 to 8 mg/mL.

With Dextran sulfate, the “sustained RNA stability during cDNA library generation” value is “did”; the “quality of the sequencing data compared with standard Smart-seq2 utilizing recombinant RNAse inhibitor (TaKaRa)” value is “on par”; the “optimal range of alternative inhibitor” value was 1 to 2.5 µg/mL and 1.5 to 2.5 µg/mL.

(Values after patent US20260139245A1, “METHODS AND USES OF RIBONUCLEASE INHIBITORS” (Sequrna AB, priority 2022, published 2026).)
